Assay results: patent US20230265151A1, “GIP/GLP1 CO-AGONIST COMPOUNDS” (priority 2020, published 2023)
Where two headings read alike, the source gives them in different places.

What was measured:
hGIPR = biological target: T1, hGIPR (Homo sapiens, UniProt P48546); assay: Functional cAMP formation (HTRF) in HEK-293 clonal cells expressing hGIPR, 0.1% bovine casein, without or with 1.0% human serum albumin; format: cell-based; details: for EC50: cAMP, incubated at 37° C., 0.1% bovine casein (no human serum albumin), geometric mean, read-out: hGIPR EC50, nM (SEM, n)
T1 construct: expressed in transfected cells
T1 sequence (P48546 22-466): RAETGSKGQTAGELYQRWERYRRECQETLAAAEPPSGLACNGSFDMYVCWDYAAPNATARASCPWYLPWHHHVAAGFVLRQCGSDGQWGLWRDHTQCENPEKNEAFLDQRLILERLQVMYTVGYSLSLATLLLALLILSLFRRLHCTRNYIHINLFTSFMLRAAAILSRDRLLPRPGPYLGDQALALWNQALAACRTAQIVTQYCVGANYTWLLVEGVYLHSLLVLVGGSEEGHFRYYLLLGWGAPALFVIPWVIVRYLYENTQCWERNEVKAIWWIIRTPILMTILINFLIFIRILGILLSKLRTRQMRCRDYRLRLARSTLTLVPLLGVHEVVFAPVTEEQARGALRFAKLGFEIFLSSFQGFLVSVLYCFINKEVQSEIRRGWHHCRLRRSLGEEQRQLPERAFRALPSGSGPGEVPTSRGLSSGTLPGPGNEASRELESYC
In short: (§1)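 Cells were stimulated with peptide for 30 min at 37° C, then intracellular cAMP was measured by competitive HTRF (665/620 nm ratio) and converted to nM using a cAMP standard curve. Relative EC50 and Emax came from four-parameter logistic fits of percent maximal response against peptide concentration.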

hGCGR = biological target: T2, hGCGR (Homo sapiens, UniProt P47871); assay: Functional cAMP formation (HTRF) in HEK-293 clonal cells expressing hGCGR, 0.1% bovine casein, without or with 1.0% human serum albumin; format: cell-based
T2 construct: expressed in transfected cells
T2 sequence (P47871 26-477): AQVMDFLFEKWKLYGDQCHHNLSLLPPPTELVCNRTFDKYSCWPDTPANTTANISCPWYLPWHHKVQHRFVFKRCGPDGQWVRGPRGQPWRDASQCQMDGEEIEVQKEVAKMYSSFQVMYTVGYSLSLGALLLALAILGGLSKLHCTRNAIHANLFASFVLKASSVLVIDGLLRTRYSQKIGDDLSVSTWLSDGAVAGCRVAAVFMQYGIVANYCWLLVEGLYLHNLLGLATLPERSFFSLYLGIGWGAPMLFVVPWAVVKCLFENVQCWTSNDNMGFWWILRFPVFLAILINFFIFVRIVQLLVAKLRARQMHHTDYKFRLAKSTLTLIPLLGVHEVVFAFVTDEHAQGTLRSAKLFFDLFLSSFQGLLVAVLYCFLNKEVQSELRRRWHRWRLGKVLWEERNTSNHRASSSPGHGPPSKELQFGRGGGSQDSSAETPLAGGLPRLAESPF
In short: as §1

[1] = HEK293, percent of maximal response to GIP(1-42)NH2, 37° C., 0.1% bovine casein, arithmetic mean, read-out: hGIPR Emax, % ± SEM
[2] = cAMP, incubated at 37° C., 0.1% bovine casein (no human serum albumin), geometric mean, read-out: hGCGR EC50, nM (SEM, n)

| SMILES | Emax (hGIPR; [1]) [%] | EC50 (hGIPR) [nM] | EC50 (hGCGR; [2]) [nM] | Emax (hGIPR; HEK293, 0.1% bovine casein and 1.0% human serum albumin, 37° C., percent of maximal response to GIP(1-42)NH2, read-out: hGIPR Emax, % ± SEM) [%] | EC50 (hGCGR; 0.1% bovine casein and 1.0% human serum albumin, 37° C., geometric mean, read-out: hGCGR EC50, nM (SEM, n)) [nM] | Emax (hGIPR; HEK293, read-out: hGIPR Emax, % ± SEM, cAMP, 37° C., 0.1% bovine casein and 1.0% human serum albumin, percent of maximal response to GIP(1-42)NH2) [%] | EC50 (hGCGR; hGCGR EC50, nM (SEM, n), cAMP, 37° C., 0.1% bovine casein (no human serum albumin), geometric mean) [nM] | EC50 (hGCGR; hGCGR EC50, nM (SEM, n), cAMP, 37° C., 0.1% bovine casein and 1.0% human serum albumin, geometric mean (SEM, n)) [nM] |
| --- | --- | --- | --- | --- | --- | --- | --- | --- |
| CC[C@H](C)[C@H](NC(=O)[C@H](CC(C)C)NC(=O)[C@](C)(Cc1ccc(O)cc1)NC(=O)[C@@H](CCC(=O)O)NC(=O)[C@@H](NC(=O)[C@H](Cc1ccccc1)NC(=O)[C@H](CCC(=O)O)NC(=O)C(C)(C)NC(=O)[C@H](CCC(N)=O)NC(=O)[C@H](C)NC(=O)[C@H](CCCCNC(=O)COCCOCCNC(=O)COCCOCCNC(=O)CC[C@H](NC(=O)CCCCCCCCCCCCC(=O)O)C(=O)O)NC(=O)[C@H](CCCN)NC(=O)[C@H](CC(=O)O)NC(=O)[C@H](CC(C)C)NC(=O)[C@](C)(CC(C)C)NC(=O)[C@@H](NC(=O)[C@H](CO)NC(=O)[C@H](Cc1ccco1)NC(=O)[C@H](CC(=O)O)NC(=O)[C@H](CO)NC(=O)[C@@H](NC(=O)[C@](C)(Cc1ccccc1F)NC(=O)[C@@H](NC(=O)CNC(=O)[C@H](CCC(=O)O)NC(=O)C(C)(C)NC(=O)[C@@H](N)Cc1ccc(O)cc1)[C@@H](C)O)[C@@H](C)O)[C@@H](C)CC)[C@@H](C)CC)C(=O)N[C@@H](CCC(=O)O)C(=O)NCC(=O)NCC(=O)N[C@@H](CCCCNC(=O)COCCOCCNC(=O)COCCOCCNC(=O)CC[C@H](NC(=O)CCCCCCCCCCCCC(=O)O)C(=O)O)C(=O)N[C@@H](CO)C(=O)N[C@@H](CO)C(=O)NCC(=O)N[C@@H](C)C(=O)N1CCC[C@H]1C(=O)N1CCC[C@H]1C(=O)N1CCC[C@H]1C(=O)N[C@@H](CO)C(N)=O [Example 143] | 95 | 0.022 | > 9950 | – | – | – | – | – |
| CC[C@H](C)[C@H](NC(=O)[C@H](CC(C)C)NC(=O)[C@](C)(Cc1ccc(O)cc1)NC(=O)[C@@H](CCC(=O)O)NC(=O)[C@@H](NC(=O)[C@H](Cc1ccccc1)NC(=O)[C@H](CCC(=O)O)NC(=O)C(C)(C)NC(=O)[C@H](CCC(N)=O)NC(=O)[C@H](C)NC(=O)[C@H](CCCCNC(=O)COCCOCCNC(=O)COCCOCCNC(=O)CC[C@H](NC(=O)CCCCCCCCCCCCC(=O)O)C(=O)O)NC(=O)[C@H](CCCN)NC(=O)[C@H](CC(=O)O)NC(=O)[C@H](CC(C)C)NC(=O)[C@](C)(CC(C)C)NC(=O)[C@@H](NC(=O)[C@H](CO)NC(=O)[C@@H](NC(=O)[C@H](CC(=O)O)NC(=O)[C@H](CO)NC(=O)[C@@H](NC(=O)[C@](C)(Cc1ccccc1F)NC(=O)[C@@H](NC(=O)CNC(=O)[C@H](CCC(=O)O)NC(=O)C(C)(C)NC(=O)[C@@H](N)Cc1ccc(O)cc1)[C@@H](C)O)[C@@H](C)O)C1CCCCC1)[C@@H](C)CC)[C@@H](C)CC)C(=O)N[C@@H](CCC(=O)O)C(=O)NCC(=O)NCC(=O)N[C@@H](CCCCNC(=O)COCCOCCNC(=O)COCCOCCNC(=O)CC[C@H](NC(=O)CCCCCCCCCCCCC(=O)O)C(=O)O)C(=O)N[C@@H](CO)C(=O)N[C@@H](CO)C(=O)NCC(=O)N[C@@H](C)C(=O)N1CCC[C@H]1C(=O)N1CCC[C@H]1C(=O)N1CCC[C@H]1C(=O)N[C@@H](CO)C(N)=O [Example 97] | 97 ± 1.53 | – | > 9950 | 93.1 | > 9950 | – | – | – |
| CC[C@H](C)[C@H](NC(=O)[C@H](CCCN)NC(=O)[C@H](CC(=O)O)NC(=O)[C@H](CC(C)C)NC(=O)[C@](C)(CC(C)C)NC(=O)[C@@H](NC(=O)[C@H](CO)NC(=O)[C@H](CCCCNC(=O)COCCOCCNC(=O)COCCOCCNC(=O)CC[C@H](NC(=O)CCCCCCCCCCCCC(=O)O)C(=O)O)NC(=O)[C@H](CC(=O)O)NC(=O)[C@H](CO)NC(=O)[C@@H](NC(=O)[C@](C)(Cc1ccccc1F)NC(=O)[C@@H](NC(=O)CNC(=O)[C@H](CCC(=O)O)NC(=O)C(C)(C)NC(=O)[C@@H](N)Cc1ccc(O)cc1)[C@@H](C)O)[C@@H](C)O)[C@@H](C)CC)C(=O)N[C@@H](C)C(=O)N[C@@H](CCC(N)=O)C(=O)NC(C)(C)C(=O)N[C@@H](CCCCNC(=O)COCCOCCNC(=O)COCCOCCNC(=O)CC[C@H](NC(=O)CCCCCCCCCCCCC(=O)O)C(=O)O)C(=O)N[C@@](C)(Cc1ccccc1)C(=O)N[C@H](C(=O)N[C@H](CCC(=O)O)C(=O)N[C@@](C)(Cc1ccc(O)cc1)C(=O)N[C@@H](CC(C)C)C(=O)N[C@H](C(=O)N[C@@H](CCC(=O)O)C(=O)NCC(=O)NCC(=O)N1CCC[C@H]1C(=O)N[C@@H](CO)C(=O)N[C@@H](CO)C(=O)NCC(=O)N[C@@H](C)C(=O)N1CCC[C@H]1C(=O)N1CCC[C@H]1C(=O)N1CCC[C@H]1C(=O)N[C@@H](CO)C(N)=O)[C@@H](C)CC)[C@@H](C)CC [Example 109] | 84.8 | 0.0236 | > 9950 | – | – | – | – | – |
| CC[C@H](C)[C@H](NC(=O)[C@H](CC(C)C)NC(=O)[C@](C)(Cc1ccc(O)cc1)NC(=O)[C@@H](CCC(=O)O)NC(=O)[C@@H](NC(=O)[C@H](Cc1ccccc1)NC(=O)[C@H](CCC(=O)O)NC(=O)C(C)(C)NC(=O)[C@H](CCC(N)=O)NC(=O)[C@H](C)NC(=O)[C@H](CCCCNC(=O)COCCOCCNC(=O)COCCOCCNC(=O)CC[C@H](NC(=O)CCCc1ccc(C(C)(C)C)cc1)C(=O)O)NC(=O)[C@H](CCCN)NC(=O)[C@H](CC(=O)O)NC(=O)[C@H](CC(C)C)NC(=O)[C@](C)(CC(C)C)NC(=O)[C@@H](NC(=O)[C@H](CO)NC(=O)[C@H](Cc1ccncc1)NC(=O)[C@H](CC(=O)O)NC(=O)[C@H](CO)NC(=O)[C@@H](NC(=O)[C@](C)(Cc1ccccc1F)NC(=O)[C@@H](NC(=O)CNC(=O)[C@H](CCC(=O)O)NC(=O)C(C)(C)NC(=O)[C@@H](N)Cc1ccc(O)cc1)[C@@H](C)O)[C@@H](C)O)[C@@H](C)CC)[C@@H](C)CC)C(=O)N[C@@H](CCC(=O)O)C(=O)NCC(=O)N[C@@H](CCCCNC(=O)COCCOCCNC(=O)COCCOCCNC(=O)CC[C@H](NC(=O)CCCc1ccc(C(C)(C)C)cc1)C(=O)O)C(=O)N1CCC[C@H]1C(=O)N[C@@H](CO)C(=O)N[C@@H](CO)C(=O)NCC(=O)N[C@@H](C)C(=O)N1CCC[C@H]1C(=O)N1CCC[C@H]1C(=O)N1CCC[C@H]1C(=O)N[C@@H](CO)C(N)=O [Example 134] | – | 0.0238 | > 9950 | – | – | – | – | – |
| CCCC[C@H](NC(=O)[C@H](CC(=O)O)NC(=O)[C@H](CO)NC(=O)[C@@H](NC(=O)[C@](C)(Cc1ccccc1F)NC(=O)[C@@H](NC(=O)CNC(=O)[C@H](CCC(=O)O)NC(=O)C(C)(C)NC(=O)[C@@H](N)Cc1ccc(O)cc1)[C@@H](C)O)[C@@H](C)O)C(=O)N[C@@H](CO)C(=O)N[C@H](C(=O)N[C@@](C)(CC(C)C)C(=O)N[C@@H](CC(C)C)C(=O)N[C@@H](CC(=O)O)C(=O)N[C@@H](CCCN)C(=O)N[C@@H](CCCCNC(=O)COCCOCCNC(=O)COCCOCCNC(=O)CC[C@H](NC(=O)CCCCCCCCCOc1ccc(C(=O)O)cc1)C(=O)O)C(=O)N[C@@H](C)C(=O)N[C@@H](CCC(N)=O)C(=O)NC(C)(C)C(=O)N[C@@H](CCC(=O)O)C(=O)N[C@@H](Cc1ccccc1)C(=O)N[C@H](C(=O)N[C@H](CCC(=O)O)C(=O)N[C@@](C)(Cc1ccc(O)cc1)C(=O)N[C@@H](CC(C)C)C(=O)N[C@H](C(=O)N[C@@H](CCCCNC(=O)COCCOCCNC(=O)COCCOCCNC(=O)CC[C@H](NC(=O)CCCCCCCCCOc1ccc(C(=O)O)cc1)C(=O)O)C(=O)NCC(=O)NCC(=O)N1CCC[C@H]1C(=O)N[C@@H](CO)C(=O)N[C@@H](CO)C(=O)NCC(=O)N[C@@H](C)C(=O)N1CCC[C@H]1C(=O)N1CCC[C@H]1C(=O)N1CCC[C@H]1C(=O)N[C@@H](CO)C(N)=O)[C@@H](C)CC)[C@@H](C)CC)[C@@H](C)CC [Example 328] | – | – | – | – | – | 85.5 | > 9950 | > 9950 |
| CC[C@H](C)[C@H](NC(=O)[C@H](CC(C)C)NC(=O)[C@](C)(Cc1ccc(O)cc1)NC(=O)[C@@H](CCC(=O)O)NC(=O)[C@@H](NC(=O)[C@H](Cc1ccccc1)NC(=O)[C@H](CCC(=O)O)NC(=O)C(C)(C)NC(=O)[C@H](CCC(N)=O)NC(=O)[C@H](C)NC(=O)[C@H](CCCCNC(=O)COCCOCCNC(=O)COCCOCCNC(=O)CC[C@H](NC(=O)CCCCCCCCCCCCC(=O)O)C(=O)O)NC(=O)[C@H](CCCN)NC(=O)[C@H](CC(=O)O)NC(=O)[C@H](CC(C)C)NC(=O)[C@](C)(CC(C)C)NC(=O)[C@@H](NC(=O)C(C)(C)NC(=O)[C@@H](NC(=O)[C@H](CC(=O)O)NC(=O)[C@H](CO)NC(=O)[C@@H](NC(=O)[C@](C)(Cc1ccccc1)NC(=O)[C@@H](NC(=O)CNC(=O)[C@H](CCC(=O)O)NC(=O)C(C)(C)NC(=O)[C@@H](N)Cc1ccc(O)cc1)[C@@H](C)O)[C@@H](C)O)C(C)C)[C@@H](C)CC)[C@@H](C)CC)C(=O)N[C@@H](CCC(=O)O)C(=O)NCC(=O)NCC(=O)N[C@@H](CCCCNC(=O)COCCOCCNC(=O)COCCOCCNC(=O)CC[C@H](NC(=O)CCCCCCCCCCCCC(=O)O)C(=O)O)C(=O)N[C@@H](CO)C(=O)N[C@@H](CO)C(=O)NCC(=O)N[C@@H](C)C(=O)N1CCC[C@H]1C(=O)N1CCC[C@H]1C(=O)N1CCC[C@H]1C(=O)N[C@@H](CO)C(N)=O [Example 180] | 86.8 | – | > 9950 | – | – | – | – | – |
